Results taken from patent US20060074244A1, “Pyridinyl substituted (1,2,3,)triazoles as inhibitors of the tgf-beta signalling pathway” (priority 2002, published 2006).
One block for each molecule: values may come before it.

Key:
[1] = tested on: TGF-β signalling (PAI-1 promoter-luciferase in HepG2 cells); experiment: Cellular transcriptional assay (PAI-1 promoter luciferase reporter)
Method: The assay was performed in HepG2 cells stably transfected with the PAI-1 promoter (known to be a strong TGF-β responsive promoter) linked to a luciferase (firefly) reporter gene. The compounds were selected on their ability to inhibit luciferase activity in cells exposed to TGF-β. In addition, cells were transfected with a second luciferase (Renilla) gene which was not driven by a TGF-13 responsive promoter and was used as a toxicity control.
96 well microplates were seeded, using a multidrop apparatus, with the stably transfected cell line at a concentration of 35000 cells per well in 200 μl of serum-containing medium. These plates were placed in a cell incubator.
18 to 24 hours later (Day 2), cell-incubation procedure was launched. […] Each well contained only one candidate compound and its effect on the PAI-1 promoter was monitored.
Columns 11 and 12 were employed as controls. […] Column 11 was used to determine the ‘reference TGF-β induced firefly luciferase value’ against which values measured in the test wells (to quantify inhibitory activity) were compared. […]
12 to 18 hours later (day 3), the luciferase quantification procedure was launched. […] Following agitation (15 to 30 mins), luciferase activities of the plates were read in a dual-injector luminometer (BMG lumistar). […]

[2] = target: T1, recombinant GST-ALK5 (residues 198-503) (Homo sapiens, UniProt P36897); experiment: Alk5 fluorescence polarization assay; type: binding; conditions: displacement of rhodamine green-labelled ligand, 10 nM ALK5; read-out: ALK5 receptor modulator activity (IC50)
T1 construct: assays using recombinant GST-ALK5 (residues 198-503)
T1 sequence (P36897 198-503): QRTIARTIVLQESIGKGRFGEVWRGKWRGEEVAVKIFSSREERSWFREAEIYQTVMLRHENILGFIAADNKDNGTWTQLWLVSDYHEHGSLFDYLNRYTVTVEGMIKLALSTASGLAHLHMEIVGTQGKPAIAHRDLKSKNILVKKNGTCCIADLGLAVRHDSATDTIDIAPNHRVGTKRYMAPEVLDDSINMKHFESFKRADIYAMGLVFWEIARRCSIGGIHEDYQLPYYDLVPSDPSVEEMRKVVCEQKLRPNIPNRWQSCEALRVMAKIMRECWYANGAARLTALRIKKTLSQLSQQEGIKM
Method: Assay 2 (Alk5 Fluorescence Polarization Assay)
Kinase inhibitor compounds conjugated to fluorophores, can be used as fluorescent ligands to monitor ATP competitive binding of other compounds to a given kinase. The increase in depolarization of plane polarized light, caused by release of the bound ligand into solution, is measured as a polarization/anisotropy value. This protocol details the use of a rhodamine green-labelled ligand for assays using recombinant GST-ALK5 (residues 198-503).
Assay buffer components: 62.5 mM Hepes pH 7.5 (Sigma H-4034), 1 mM DTT (Sigma D-0632), 12.5 mM MgCl2 (Sigma M-9272), 1.25 mM CHAPS (Sigma C-3023). […]
ALK5 was added to assay buffer containing the above components and 1 nM of the rhodamine green-labelled ligand so that the final ALK5 concentration was 10 nM based on active site titration of the enzyme. […] The plates were read immediately on a LJL Acquest fluorescence reader (Molecular Devices, serial number AQ1048) with excitation, emission, and dichroic filters of 485 nm, 530 nm, and 505 nm, respectively. The fluorescence polarization for each well was calculated by the Acquest reader and then imported into curve fitting software for construction of concentration response curves. The normalized response was determined relative to the high controls (1 μl DMSO in column 12, rows A-D) and the low controls (1 μl of control compound in column 12, rows E-H). […]

Structure (SMILES): O=C1C=CCC1 [CPO, Cyclopentenone, reference compound]
firefly and renilla luciferase activities (toxicity control) ([1]; 500 μM CPO with TGF-β, relative to TGF-β only): around 50%

IC50 ([1]; Homo sapiens, HepG2, read-out: TGF-β cellular activity): 413 nM
IC50 [2]: 26 nM
Structure (SMILES): Cc1cccc(-c2[nH]nnc2-c2ccnc(-c3ccc(S(C)(=O)=O)cc3)c2)n1 [Example 1, 2-(4-Methanesulfonylphenyl)-4-(5-(6-methyl)-pyridin-2-yl-3H-[1,2,3]triazol-4-yl)-pyridine]

melting point: 110 °C
Structure (SMILES): Cc1cccc(-c2nn[nH]c2-c2ccnc(-c3ccc(CN4CCOCC4)cc3)c2)n1 [Example 4, 4-(4-{4-[5-(6-methyl-pyridin-2-yl)-3H-[1,2,3]triazol-4-yl]-pyridin-2-yl}-benzyl)-morpholine]
